Legend:
[1] = HLM, ref 14 (THJ-018, THJ-2201), 15 (NNEI, MN-18), 106 (NM-2201), 107 (BIM-2201), 108 (STS-135), 16 (AB-PINACA, 5F-AB-PINACA), 54 (5F-MDMB-PINACA), 69 (AB-FUBINACA), 17 (ADB-FUBINACA), 97 (FDU-PB-22, FUB-PB-22), cited from earlier work; for CLint micr / t1/2: 95 (Cumyl-PICA, 5F-Cumyl-PICA), 109 (5F-APP-PICA, 5F-APP-PINACA; for CLint micr: 73 (5F-AMB-PINACA); for t1/2 / CLint: 57 (AMB-4en-PICA); for t1/2: 73 (AMB-PINACA, 5F-AMB-PINACA)
[2] = Short-term plasma stability with and without esterase inhibitors; details: 3 h, 37 °C
[3] = Metabolic stability, pooled human liver microsome incubations
Method: Total incubation volume was 500 µL. Procedure: Test compound working solutions (50 µM in potassium phosphate buffer (pH 7.4)) were prepared (<1% DMSO). pHLM were thawed and diluted in potassium phosphate buffer (pH 7.4). […] Reactions were quenched in 200 µL ACN spiked with donepezil (IS, 50 ng mL^−1). […] Samples were analysed by UPLC-MS/MS in a 96 deep-well 2 mL plate. Each SCRA was incubated at least in triplicate but additional incubations were carried out across a number of analytical batches, giving greater replication and a greater understanding of system variability. Microsomal scaling factors used for human liver microsome incubations in the literature vary. Intrinsic clearance and predicted in vivo clearance rates calculated using alternative scaling factors found in the literature is provided in Section S6 of the supplementary information, to aid comparison of data between publications.
Equations used for in vitro intrinsic clearance calculation and human in vivo clearance […]
The equations used for in vitro intrinsic clearance calculation and human in vivo clearance estimation […]
Microsomal clearance (HLM incubations) in mL min-1 mg microsomal protein-1 [3]
Intrinsic clearance (whole-liver dimensions) (HLM incubations) in mL min-1 kg-1 [3] CL = k x V x [Liver](g) x SF Eqn. 7 […]
mg g microsomal protein-1 [7]
Intrinsic clearance (whole-liver dimensions) (HHep incubations) in mL min-1 kg-1 [4] CL = k x V x hepatocytes/g liver x [Liver](g) Eqn. 8 […]
Where: hepatocytes/g liver = 107x10^6 cells/g liver
Hepatic clearance in mL min-1 kg-1 [3]
[…] Eqn. 9
Where: Q = hepatic blood flow, 21 mL min-1 kg-1 [9]; fu = fraction unbound (plasma); CLint = […]
Estimated human hepatic extraction ratio [5]
Intrinsic clearance data – pooled human liver microsome incubations […]
table S4-28. Intrinsic clearance and predicted in vivo data calculated using alternative microsomal scaling factors found in the literature – 32 [10] and 45 [11] mg microsomal protein per gram liver – are provided in tables S29 and S30, respectively.

[4] = Plasma protein binding by equilibrium dialysis; format: in vitro ADME, human; details: human, pooled human plasma, pH 7.4, equilibrium dialysis 5 h, 37 °C, 10 µg mL^−1; read-out: PPB (%) (converted)
Method: Plasma protein binding was assessed by equilibrium dialysis in a 96-well dialysis block (HTDialysis, Ledyard, CT, USA). Dialysis membranes (12–14 kDa) were soaked in deionised water for at least 60 min. Membranes were soaked overnight at 4 °C in ethanol:water 20:80% v/v and then rinsed with deionised water immediately prior to use. […] Spiked plasma (150 µL) was dialysed against isotonic phosphate buffer (pH 7.4) (150 µL) for 5 h at 37 °C with shaking at 100 rpm. Thermal degradation controls for each test compound were kept at 37 °C and 4 °C. Blank control plasma and buffer were included in the incubation. Following incubation, dialysed plasma samples and thermal degradation controls (50 µL) were added to drug-free buffer (50 µL), and dialysed buffer samples (50 µL) were added to drug-free plasma (50 µL). […] Supernatant (150 µL) was added to 50 µL deionised water and samples were analysed by UPLC-MS/MS as described above. Dialysed buffer from each well was tested for protein contamination using BCA protein assay reagent to determine whether membranes had been compromised.
Bu = Analyte/IS ratio determined in buffer side (2) Fraction unbound, fu=(100−% bound)/100

[5] = system: pooled human cryopreserved hepatocytes (pHHeps); assay: Metabolic stability, pooled human cryopreserved hepatocyte incubations
[6] = pHLM, scaling factor 32 mg microsomal protein per gram liver
[7] = pHLM, scaling factor 45 mg microsomal protein per gram liver
[8] = pHHeps, 99x10^6 hepatocytes per gram liver

NC(=O)[C@H](Cc1ccccc1)NC(=O)c1nn(CCCCCF)c2ccccc12 [5F-APP-PINACA]
CLint micr [1]: 202 µL/min/mg | t1/2 [1]: 3.4 min

CC(C)(NC(=O)c1cn(CCCCCF)c2ccccc12)c1ccccc1 [5F-Cumyl-PICA]
CLint micr [1]: 390 µL/min/mg | t1/2 [1]: 1.77 min

COC(=O)[C@H](NC(=O)c1nn(CCCCF)c2ccccc12)C(C)(C)C [(R)-4F-MDMB-BINACA (4), methyl 2-[1-(4-fluorobutyl)-1H-indazole-3-carboxamido]-3,3-dimethylbutanoate]
Parent Compound Remaining (%), Esterase Inhibitors ([2]; pH 7.4, BNPP and PMSF 500 µM each): 96.0 ± 1.7% | Parent Compound Remaining (%), No Esterase Inhibitors ([2]; pH 7.4, pooled human plasma): 91.1 ± 6.8% | Predicted In Vivo Hepatic Clearance, CLH ([3]; from pHLM CLint, well-stirred model with plasma fu, Q 21 mL min^−1 kg^−1): 0.513 ± 0.0144 L/h/kg | Hepatic extraction ratio, EH ([3]; from pHLM incubations): 0.41 ± 0.012 | T1/2 ([3]; pHLM 0.5 mg mL^−1, 0.5 µM, NADPH, 37 °C, n ≥ 3 ± SD): 14 ± 0.68 min | % parent compound remaining, Average ([3]; pHLM, 3 min): 78.8% | % parent compound remaining, Average ([3]; pHLM, 6 min): 72.8% | % parent compound remaining, Average ([3]; pHLM, 9 min): 54.1% | % parent compound remaining, Average ([3]; pHLM, 15 min): 48.4% | % parent compound remaining, Average ([3]; pHLM, 30 min): 26.6% | Intrinsic clearance, CLint ([3]; pHLM, alternative microsomal scaling factor 32 mg microsomal protein per gram liver): 4.74 L/h/kg | Intrinsic clearance, CLint ([3]; pHLM, alternative microsomal scaling factor 45 mg microsomal protein per gram liver): 6.72 L/h/kg | Microsomal Intrinsic Clearance, CLint micr ([3]; pHLM, n ≥ 3 ± SD): 0.096 ± 0.005 mL min^−1 mg Microsomal Protein^−1 | Hepatic extraction ratio, EH [3, 6]: 0.30 ± 0.010 | Predicted in vivo hepatic clearance, CLH [3, 6]: 0.372 L/h/kg | Hepatic extraction ratio, EH [3, 7]: 0.37 ± 0.011 | Predicted in vivo hepatic clearance, CLH [3, 7]: 0.467 L/h/kg | fraction unbound at 5 h, 10 µg mL^−1 [4]: 0.111 | Predicted In Vivo Hepatic Clearance, CLH ([5]; from pHHeps CLint, well-stirred model with plasma fu, Q 21 mL min^−1 kg^−1): 0.526 ± 0.0858 L/h/kg | Hepatic extraction ratio, EH ([5]; from pHHeps incubations): 0.42 ± 0.068 | T1/2 ([5]; pHHeps 0.25 million cells mL^−1, 0.5 µM, 37 °C, n ≥ 3 ± SD): 58 ± 17.2 min | Hepatic extraction ratio, EH [5, 8]: 0.40 ± 0.067 | Predicted in vivo hepatic clearance, CLH [5, 8]: 0.503 ± 0.084 L/h/kg | % parent compound remaining, Average ([5]; pHHeps, 3 min): 89.2% | % parent compound remaining, Average ([5]; pHHeps, 6 min): 84.6% | % parent compound remaining, Average ([5]; pHHeps, 9 min): 91.0% | % parent compound remaining, Average ([5]; pHHeps, 15 min): 82.6% | % parent compound remaining, Average ([5]; pHHeps, 30 min): 65.7% | % parent compound remaining, Average ([5]; pHHeps, 45 min): 48.5% | % parent compound remaining, Average ([5]; pHHeps, 60 min): 37.9% | Intrinsic clearance, CLint ([5]; pHHeps, alternative hepatocyte cell density 99x10^6 hepatocytes per gram liver): 7.68 ± 2.08 L/h/kg

CCCCCn1nc(C(=O)N[C@H](C(N)=O)C(C)C)c2ccccc21 [AB-PINACA]
CLint micr [1]: 37 µL/min/mg | t1/2 [1]: 18.7 min | CLint [1]: 2.1 L/h/kg

CCCCCn1nc(C(=O)N[C@H](C(=O)OC)C(C)C)c2ccccc21 [AMB-PINACA, methyl (1-pentyl-1H-indazole-3-carbonyl)valinate]
t1/2 [1]: 1.1 min

O=C(c1cccc2ccccc12)c1nc2ccccc2n1CCCCCF [BIM-2201]
CLint micr [1]: 142 µL/min/mg | t1/2 [1]: 4.9 min | CLint [1]: 8.046 L/h/kg

CC(C)[C@H](NC(=O)c1nn(CCCCCF)c2ccccc12)C(N)=O [Compound 5F-AB-PINACA]
CLint micr [1]: 19 µL/min/mg | t1/2 [1]: 35.9 min | CLint [1]: 1.08 L/h/kg

NC(=O)[C@H](Cc1ccccc1)NC(=O)c1cn(CCCCCF)c2ccccc12 [Compound 5F-APP-PICA]
CLint micr [1]: 46 µL/min/mg | t1/2 [1]: 15.1 min

CCCCCn1cc(C(=O)NC(C)(C)c2ccccc2)c2ccccc21 [Cumyl-PICA, 1-pentyl-N-(2-phenylpropan-2-yl)-1H-indole-3-carboxamide]
CLint micr [1]: 120 µL/min/mg | t1/2 [1]: 5.92 min

O=C(Oc1cccc2ccccc12)c1cn(Cc2ccc(F)cc2)c2ccccc12 [FDU-PB-22]
CLint micr [1]: 56 µL/min/mg | t1/2 [1]: 12.4 min | CLint [1]: 3.16 L/h/kg

O=C(Oc1cccc2cccnc12)c1cn(Cc2ccc(F)cc2)c2ccccc12 [FUB-PB-22]
CLint micr [1]: 60 µL/min/mg | t1/2 [1]: 11.5 min | CLint [1]: 3.43 L/h/kg

CCCCCn1nc(C(=O)Nc2cccc3ccccc23)c2ccccc21 [MN-18]
CLint micr [1]: 410 µL/min/mg | t1/2 [1]: 1.71 min | CLint [1]: 28.1 L/h/kg

O=C(Oc1cccc2ccccc12)c1cn(CCCCCF)c2ccccc12 [NM-2201]
CLint micr [1]: 88 µL/min/mg | t1/2 [1]: 8.0 min | CLint [1]: 4.9 L/h/kg

CCCCCn1cc(C(=O)Nc2cccc3ccccc23)c2ccccc21 [NNEI]
CLint micr [1]: 300 µL/min/mg | t1/2 [1]: 2.29 min | CLint [1]: 21 L/h/kg

O=C(NC12CC3CC(CC(C3)C1)C2)c1cn(CCCCCF)c2ccccc12 [STS-135, N-(adamantan-1-yl)-1-(5-fluoropentyl)-1H-indole-3-carboxamide]
CLint micr [1]: 222 µL/min/mg | t1/2 [1]: 3.1 min | CLint [1]: 12.5 L/h/kg

CCCCCn1nc(C(=O)c2cccc3ccccc23)c2ccccc21 [THJ-018]
CLint micr [1]: 36 µL/min/mg | t1/2 [1]: 19.2 min | CLint [1]: 2.05 L/h/kg

O=C(c1cccc2ccccc12)c1nn(CCCCCF)c2ccccc12 [THJ-2201]
CLint micr [1]: 64 µL/min/mg | t1/2 [1]: 10.8 min | CLint [1]: 3.65 L/h/kg

COC(=O)C1=C(C)NC(C)=C(C(=O)OCCN(C)Cc2ccccc2)C1c1cccc([N+](=O)[O-])c1 (centres unmarked) [nicardipine, reference compound]
fraction unbound at 5 h, 10 µg mL^−1 [4]: 0.023
